Values after ≈ are worked out from the molar mass of the structure shown. Where two headings read alike, the source gives them in different places.
Experiments:
Assay in all cases: in vitro antibacterial MIC, agar plate dilution
Format in all cases: cell-based
[1] = test system: Serratia marcescens F 0-35; settings: Serratia marcescens, F035, 18 h, 35° C., read-out: MIC
Outline: (§1)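 MIC, mcg/ml: lowest concentration with no visible growth after 18 h incubation at 35° C. Mueller-Hinton agar dilution plates; ~10^4 CFU inoculum via Steers replicating device.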

[2] = test system: Escherichia coli NAR 311; settings: NAR311, 18 hours, 35° C., read-out: MIC
Outline: as §1

[3] = test system: Streptococcus faecalis VGH 84-65; settings: 35° C.
Outline: as §1

[4] = test system: Klebsiella pneumoniae AD; settings: Klebsiella pneumoniae, 18 h, 35° C., read-out: MIC
Outline: as §1

[5] = test system: Proteus rettgeri CMC 84-41; settings: Providencia rettgeri, CMC8441, 18 h, 35° C., read-out: MIC
Outline: as §1

[6] = test system: Enterobacter cloacae K 84-10; settings: Enterobacter cloacae, K8410, 18 h, 35° C., read-out: MIC
Outline: as §1

[7] = test system: Escherichia coli CMC 84-16; settings: Escherichia coli, CMC8416, 18 h, 35° C., read-out: MIC
Outline: as §1

[8] = test system: Staphylococcus epidermidis CMC 83-135; settings: CMC83135, 18 hours, 35° C., read-out: MIC
Outline: as §1

[9] = test system: Staphylococcus aureus CMC 83-128; settings: CMC83128, 18 hours, 35° C., read-out: MIC
Outline: as §1

[10] = test system: Staphylococcus epidermidis VGH 84-40; settings: VGH8440, 18 hours, 35° C., read-out: MIC
Outline: as §1

[11] = test system: Enterobacter aerogenes VGH 84-36; settings: Klebsiella aerogenes, VGH8436, 18 hours, 35° C., read-out: MIC
Outline: as §1

[12] = test system: Staphylococcus aureus VGH 84-46; settings: Staphylococcus aureus, VGH8446, 18 h, 35° C., read-out: MIC
Outline: as §1

[13] = test system: Staphylococcus aureus ATTC 29213; settings: 35° C.
Outline: as §1

[14] = test system: Streptococcus faecalis ATTC 29212; settings: Enterococcus faecalis, ATTC29212, 18 hours, 35° C., read-out: MIC
Outline: as §1

[15] = test system: Klebsiella pneumoniae MOR 84-4; settings: Klebsiella pneumoniae, MOR844, 18 h, 35° C., read-out: MIC
Outline: as §1

[16] = test system: Pseudomonas aeruginosa LL-1244; settings: 35° C.
Outline: as §1

[17] = test system: Pseudomonas aeruginosa VGH 84-4; settings: 35° C.
Outline: as §1

[18] = test system: Escherichia coli PRNT 311; settings: PRNT311, 18 hours, 35° C., read-out: MIC
Outline: as §1

[19] = test system: Enterobacter cloacae VGH 84-37; settings: Enterobacter cloacae, VGH8437, 18 h, 35° C., read-out: MIC
Outline: as §1

[20] = test system: Serratia marcescens K 84-18; settings: 35° C.
Outline: as §1

[21] = test system: Escherichia coli CMC 84-11; settings: 35° C.
Outline: as §1

[22] = test system: Staphylococcus aureus VGH 84-45; settings: 35° C.
Outline: as §1

[23] = test system: Staphylococcus aureus Smith; settings: 35° C.
Outline: as §1

[24] = test system: Staphylococcus aureus CMC 83-127; settings: Staphylococcus aureus, CMC83127, 18 h, 35° C., read-out: MIC
Outline: as §1

[25] = test system: Morganella morganii VGH 84-11; settings: VGH8411, 18 hours, 35° C., read-out: MIC
Outline: as §1

[26] = test system: Klebsiella oxytoca MOR 84-28; settings: MOR8428, 18 hours, 35° C.
Outline: as §1

[27] = test system: Staphylococcus Spp saprophiticus VGH 84-50; settings: 18 hours, 35° C., read-out: MIC
Outline: as §1

[28] = test system: Escherichia coli ATCC 25922; settings: 35° C.
Outline: as §1

[29] = test system: Morganella morganii CMC 84-37; settings: 35° C.
Outline: as §1

[30] = test system: Staphylococcus epidermidis IO 83-58; settings: IO8358, 18 hours, 35° C., read-out: MIC
Outline: as §1

[31] = Enterococcus faecalis, VGH8465, 18 h, read-out: MIC
[32] = Staphylococcus aureus, ATTC29213, 18 h, read-out: MIC
[33] = Pseudomonas aeruginosa, LL1244, 18 h, read-out: MIC
[34] = Pseudomonas aeruginosa, VGH844, 18 h, read-out: MIC
[35] = Serratia marcescens, K8418, 18 h, read-out: MIC
[36] = Escherichia coli, CMC8411, 18 h, read-out: MIC
[37] = Staphylococcus aureus, VGH8445, 18 h, read-out: MIC
[38] = Staphylococcus aureus, 18 h, read-out: MIC
[39] = Escherichia coli, ATCC25922, 18 h, read-out: MIC
[40] = Morganella morganii, CMC8437, 18 h, read-out: MIC

CCCCCCCCCCCCOCC1CN(c2cc3c(cc2F)c(=O)c(C(=O)O)cn3CC)CCN1C (stereo not drawn) [Example 75, 7-[3-[(Dodecyloxy)methyl]-4-methyl-1-piperazinyl]-1-ethyl-6-fluoro-1,4-dihydro-4-oxo-3-quinolinecarboxylic acid]
MIC [1]: > 256 µg/mL
MIC [2]: > 256 µg/mL
MIC [3, 31]: > 256 µg/mL
MIC [4]: > 256 µg/mL
MIC [5]: > 256 µg/mL
MIC [6]: > 256 µg/mL
MIC [7]: > 256 µg/mL
MIC [8]: > 256 µg/mL
MIC [9]: > 256 µg/mL
MIC [10]: > 256 µg/mL
MIC [11]: > 256 µg/mL
MIC [12]: > 256 µg/mL
MIC [13, 32]: > 256 µg/mL
MIC [14]: > 256 µg/mL
MIC [15]: > 256 µg/mL
MIC [16, 33]: > 256 µg/mL
MIC [17, 34]: > 256 µg/mL
MIC [18]: > 256 µg/mL
MIC [19]: > 256 µg/mL
MIC [20, 35]: > 256 µg/mL
MIC [21, 36]: > 256 µg/mL
MIC [22, 37]: > 256 µg/mL
MIC [23, 38]: > 256 µg/mL
MIC [24]: > 256 µg/mL
MIC [25]: > 256 µg/mL
MIC [26]: > 256 µg/mL
MIC [27]: > 256 µg/mL
MIC [28, 39]: > 256 µg/mL
MIC [29, 40]: > 256 µg/mL
MIC [30]: > 256 µg/mL

CCn1cc(C(=O)O)c(=O)c2cc(F)c(N3CCN(C)CC3)c(F)c21 [Example 61, 1-Ethyl-6,8-difluoro=1,4-dihydro-7-(4-methyl-1-piperazinyl)-4-oxo-3-quinolinecarboxylic acid]
MIC [1]: 0.12 µg/mL (≈ 0.342 µM)
MIC [2]: 0.5 µg/mL (≈ 1.42 µM)
MIC [3, 31]: 2 µg/mL (≈ 5.69 µM)
MIC [4]: 0.06 µg/mL (≈ 0.171 µM)
MIC [5]: 0.12 µg/mL (≈ 0.342 µM)
MIC [6]: 0.03 µg/mL (≈ 0.0854 µM)
MIC [7]: < 0.015 µg/mL
MIC [8]: 0.25 µg/mL (≈ 0.712 µM)
MIC [9]: 0.5 µg/mL (≈ 1.42 µM)
MIC [10]: 0.25 µg/mL (≈ 0.712 µM)
MIC [11]: 0.03 µg/mL (≈ 0.0854 µM)
MIC [12]: 0.25 µg/mL (≈ 0.712 µM)
MIC [13, 32]: 0.5 µg/mL (≈ 1.42 µM)
MIC [14]: 2 µg/mL (≈ 5.69 µM)
MIC [15]: 0.06 µg/mL (≈ 0.171 µM)
MIC [16, 33]: 4 µg/mL (≈ 11.4 µM)
MIC [17, 34]: 0.5 µg/mL (≈ 1.42 µM)
MIC [18]: 0.03 µg/mL (≈ 0.0854 µM)
MIC [19]: 0.03 µg/mL (≈ 0.0854 µM)
MIC [20, 35]: 0.06 µg/mL (≈ 0.171 µM)
MIC [21, 36]: 0.03 µg/mL (≈ 0.0854 µM)
MIC [22, 37]: 0.12 µg/mL (≈ 0.342 µM)
MIC [23, 38]: 0.25 µg/mL (≈ 0.712 µM)
MIC [24]: 0.12 µg/mL (≈ 0.342 µM)
MIC [25]: 0.06 µg/mL (≈ 0.171 µM)
MIC [26]: 0.06 µg/mL (≈ 0.171 µM)
MIC [27]: 2 µg/mL (≈ 5.69 µM)
MIC [28, 39]: < 0.015 µg/mL
MIC [29, 40]: 0.06 µg/mL (≈ 0.171 µM)
MIC [30]: 0.25 µg/mL (≈ 0.712 µM)

CCCCCCOCC1CN(c2cc3c(cc2F)c(=O)c(C(=O)O)cn3CC)CCN1C (stereo not drawn) [Example 78, 1-Ethyl-6-fluoro-7-[3-[(hexyloxy)methyl]-4-methyl-1-piperazinyl]-1,4-dihydro-4-oxo-3-quinolinecarboxylic acid]
MIC [1]: > 256 µg/mL
MIC [2]: 256 µg/mL (≈ 572 µM)
MIC [3, 31]: 16 µg/mL (≈ 35.8 µM)
MIC [4]: 64 µg/mL (≈ 143 µM)
MIC [5]: 64 µg/mL (≈ 143 µM)
MIC [6]: 64 µg/mL (≈ 143 µM)
MIC [7]: 32 µg/mL (≈ 71.5 µM)
MIC [8]: 4 µg/mL (≈ 8.94 µM)
MIC [9]: 4 µg/mL (≈ 8.94 µM)
MIC [10]: 2 µg/mL (≈ 4.47 µM)
MIC [11]: 64 µg/mL (≈ 143 µM)
MIC [12]: 4 µg/mL (≈ 8.94 µM)
MIC [13, 32]: 4 µg/mL (≈ 8.94 µM)
MIC [14]: 16 µg/mL (≈ 35.8 µM)
MIC [15]: 64 µg/mL (≈ 143 µM)
MIC [16, 33]: > 256 µg/mL
MIC [17, 34]: > 256 µg/mL
MIC [18]: 16 µg/mL (≈ 35.8 µM)
MIC [19]: 64 µg/mL (≈ 143 µM)
MIC [20, 35]: > 256 µg/mL
MIC [21, 36]: 32 µg/mL (≈ 71.5 µM)
MIC [22, 37]: 8 µg/mL (≈ 17.9 µM)
MIC [23, 38]: 8 µg/mL (≈ 17.9 µM)
MIC [24]: 1 µg/mL (≈ 2.23 µM)
MIC [25]: 32 µg/mL (≈ 71.5 µM)
MIC [26]: 64 µg/mL (≈ 143 µM)
MIC [27]: 8 µg/mL (≈ 17.9 µM)
MIC [28, 39]: 32 µg/mL (≈ 71.5 µM)
MIC [29, 40]: 32 µg/mL (≈ 71.5 µM)
MIC [30]: 8 µg/mL (≈ 17.9 µM)

O=C(O)c1cn(C2CC2)c2cc(N3CCNC(c4ccsc4)C3)c(F)cc2c1=O (stereo not drawn) [Example 60]
MIC [1]: < 0.12 µg/mL
MIC [2]: 0.25 µg/mL (≈ 0.605 µM)
MIC ([3]; 18 hours): < 0.12 µg/mL
MIC [4]: < 0.12 µg/mL
MIC [5]: < 0.12 µg/mL
MIC [6]: < 0.12 µg/mL
MIC [7]: < 0.12 µg/mL
MIC [8]: < 0.12 µg/mL
MIC [9]: < 0.12 µg/mL
MIC [10]: < 0.12 µg/mL
MIC [11]: < 0.12 µg/mL
MIC [12]: < 0.12 µg/mL
MIC ([13]; 18 hours): < 0.12 µg/mL
MIC [14]: < 0.12 µg/mL
MIC [15]: < 0.12 µg/mL
MIC ([16]; 18 hours): 4 µg/mL (≈ 9.67 µM)
MIC ([17]; 18 hours): 0.5 µg/mL (≈ 1.21 µM)
MIC [18]: < 0.12 µg/mL
MIC [19]: < 0.12 µg/mL
MIC ([20]; 18 hours): < 0.12 µg/mL
MIC ([21]; 18 hours): < 0.12 µg/mL
MIC ([22]; 18 hours): < 0.12 µg/mL
MIC ([23]; 18 hours): < 0.12 µg/mL
MIC [24]: < 0.12 µg/mL
MIC [25]: < 0.12 µg/mL
MIC [26]: < 0.12 µg/mL
MIC [27]: < 0.12 µg/mL
MIC ([28]; 18 hours): < 0.12 µg/mL
MIC ([29]; 18 hours): < 0.12 µg/mL
MIC [30]: < 0.12 µg/mL

Reference: US5210193A, “Piperazine derivatives” (American Cyanamid Company, priority 1990, dated 1993)
